Source: patent US20130296391A1, “PLANT DISEASE CONTROLLING COMPOSITION AND METHOD FOR CONTROLLING PLANT DISEASE” (SUMITOMO CHEMICAL COMPANY, LIMITED, priority 2010, published 2013)

System: gray mold fungus (Botrytis cinerea)
Assay: cucumber leaf disk test against gray mold fungus, preventive value
Assay type: in vivo
Details: single compound, 15° C., four days
Method: True leaf of cucumber was punched out with cork borer to 13 mm in diameter to prepare a leaf disk. In 24 well microwell plate that was dispensed with 1 ml 0:8% water agar, the leaf disk was placed such that the upper side of the leaf was in an upward direction. Thereto was added 20 micro liter a testing solution prepared by mixing a dimethyl sulfoxide solution of the present amide compound and a dimethyl sulfoxide solution of benomyl or carbendazim to a predetermined concentration to treat the leaf disk.
After confirming that the testing medical solution was dried, conidium of gray mold fungus (Botrytis cinerea) was suspended into potato dextrose broth (DIFCO) in a density of about 10^5 conidia/mL and was then subjected to a spray inoculation. After leaving to stand the leaf disk in a growth chamber set up at 15° C. for four days, an onset area on each leaf was measured and then calculated an onset area rate (hereinafter, referred to as an onset area rate belonging to treated group).
The same operation was carried out with 20 micro liter water instead of 20 micro liter the testing medicine solution to calculate an onset area rate (hereinafter, referred to an onset area rate belonging to non-treated group).
A preventive value was calculated from the above onset area rate belonging to treated group and the onset area rate belonging to non-treated group by the following equation:
Preventive value(%)=100×(A−B)/A
A: an onset area rate belonging to non-treated group
B: an onset area rate belonging to treated group
onset area rate=(onset area of the leaf disk)/(the total area of the leaf disk)
For comparison, the same operations as described in Test Examples 1 to 4 were carried out except that the testing medicine solution was substituted with predetermined concentration of a dimethyl sulfoxide solution of benomyl or carbendazim, so as to calculate a preventive value.

[1] = treatment concentration 0.5 ppm
[2] = treatment concentration 5.0 ppm

| SMILES | preventive value (%) (treatment concentration 1.0 ppm) | preventive value (%) (treatment concentration 2.5 ppm) | preventive value (%) [1] [%] | preventive value (%) [2] [%] |
| --- | --- | --- | --- | --- |
| CNC(=O)C(OC)c1ccccc1COc1cc(C)ccc1C (stereo not drawn) [the present amide compound] | 46 | 55.5 | – | – |
| COC(=O)Nc1nc2ccccc2[nH]1 [carbendazim] | – | – | 45 | 55.5 |
| CCCCNC(=O)n1c(NC(=O)OC)nc2ccccc21 [benomyl] | – | – | 47.5 | 56.5 |
